Holding throughout (experiment): growth of human tumour cells (NCI), 48 h
The subject of experiment [1] is EKVX NSCLC.
Experiment [2] relates to KM12 colon.
Experiment [3] concerns OVCAR-5 ovarian.
The subject of experiment [4] is CCRF-CEM leukemia.
Experiment [5] relates to SW-620 colon.
For experiment [6], the system named is OVCAR-4 ovarian.
In experiment [7] the test system is NCI-H522 lung.
Experiment [8] deals with MDA-MB-231 breast.
In experiment [9] the test system is SF-295 CNS.
The test system of experiment [10] is IGROV1 ovarian.
For experiment [11], the system named is SF-268 CNS.
The subject of experiment [12] is MOLT-4 leukemia.
In experiment [13] the test system is K-562 leukemia.

Data on 10 molecules can be found in PubChem BioAssay (NCI).

Values joined by “and” are separate entries in the source; they are usually repeats but may differ in a detail not shown here. Equal values may be shown once.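 Grown in 96-well plates, cells were treated for 48 hours with each compound at five concentrations. Insufficient inhibition: endpoint recorded as highest concentration tested. At the GI50, growth is halved. At the TGI there is no net growth.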

In the case of `CC(C)NC(=O)OCc1c(COC(=O)NC(C)C)c(-c2cc[n+](COC(=O)C(C)(C)C)cc2)n2c1CCC2`, the TGI in [1], in [2], in experiment [3], in experiment [4], in experiment [5] and in experiment [6] was above 100 µM in each case. Moreover, the TGI in experiment [7], in experiment [8], in experiment [9], in [10], in experiment [11] and in experiment [12] was above 100 µM in each case. In experiment [13], this molecule came in with a TGI above 100 µM.

`COCCCNC(=O)C1=C(C)NC(C)=C(C(=O)NCCCOC)C1`: the TGI was 40.5 µM in experiment [1]; above 100 µM in experiment [2]; above 100 µM in experiment [3]; above 100 µM in experiment [4]; above 100 µM in experiment [5]; above 100 µM in [6]. In addition, the TGI in experiment [7] was 27.4 µM; in [8], above 100 µM; in experiment [9] it was above 100 µM; in experiment [10] it was 26.9 µM; in experiment [11] it was above 100 µM; in experiment [12] it was above 100 µM. In experiment [13], this molecule displayed a TGI above 100 µM.

In the case of `CC(=O)NC(CCC(=O)C=[N+]=N)C(=O)O` (stereo not drawn), the TGI in experiment [1], in experiment [2], in experiment [3], in experiment [4], in [5] and in experiment [6] was above 100 µM in each case. In addition, the TGI in experiment [7], in experiment [8], in experiment [9], in [10], in experiment [11] and in [12] was above 100 µM in each case. The molecule further yielded a TGI in experiment [13] above 100 µM.

For `CC(=O)Oc1ccccc1/C=C/C(=O)/C=C/c1ccccc1OC(C)=O`, the TGI in experiment [1] was 9.9 µM; in experiment [2] it was 3.06 µM; in experiment [3], 4.35 µM; in experiment [4], 12.6 µM; in [5], 2.32 µM; in [6] it was 10.2 µM. Moreover, the TGI in experiment [7] was found to be 4.69 µM; in experiment [8], 6.08 µM; in experiment [9], 6.11 µM; in [10], 4.52 µM; in experiment [11], 8.17 µM; in experiment [12] it was 5.71 µM. In experiment [13], this molecule displayed a TGI of 4.53 µM.

Regarding `COc1ccc2[nH]cc([C@@H]3C4CCC(C4)[C@H]3NCc3cccc(CN[C@H]4C5CCC(C5)[C@@H]4c4c[nH]c5ccc(OC)cc45)c3)c2c1`, the TGI in experiment [1] was 2.91 µM and 2.89 µM; in [2], 0.95 µM and 1.34 µM; in [3], 3.12 µM and 2.88 µM; in experiment [4], 1.08 µM; in experiment [5], 0.333 µM and 0.627 µM; in [6] it was 2.77 µM and 2.75 µM. In addition, the TGI in experiment [7] is 2.48 µM and 2.83 µM; in [8] it was 2.42 µM and 2.98 µM; in [9] it was 2.97 µM and 3.08 µM; in experiment [10], 2.61 µM; in experiment [11], 2.52 µM and 2.93 µM; in experiment [12], 3.76 µM and 1.29 µM. The GI50 in experiment [5] was 0.177 µM; in experiment [11], 1.23 µM; in experiment [12] it was 1.56 µM; in experiment [13], 0.375 µM.

Take `Clc1cc(Cl)cc(C2ON=C(c3ccccc3)N2C23CC4CC(CC(C4)C2)C3)c1` (stereo not drawn): the TGI in [1], in [2], in experiment [3], in experiment [4], in experiment [5] and in experiment [6] was above 10 µM each time. Further, the TGI in experiment [7], in experiment [8], in experiment [9], in experiment [10], in experiment [11] and in experiment [12] was above 10 µM each time. In experiment [13], this molecule displayed a TGI above 10 µM.

As for `CCN1C(=O)C(C)S/C1=N\NC(=O)CSc1nc2ccccc2c(=O)n1CC` (stereo not drawn), the TGI in [1], in experiment [2], in [3], in experiment [4], in experiment [5] and in [6] was above 100 µM each time. For the same molecule, the TGI in experiment [7], in [8], in experiment [9], in [10], in experiment [11] and in [12] was above 100 µM each time. Moreover, in experiment [13], the TGI was above 100 µM.

On to `CC(=O)O[C@H]1/C(=C/c2ccncc2)C[C@H]2[C@@H]3CC=C4C[C@@H](N5CCCC5)CC[C@]4(C)[C@H]3CC[C@]12C`, for which the TGI in experiment [1] was 29 µM; in experiment [2], 26.2 µM; in [3], 27.2 µM; in experiment [4], 38.5 µM; in experiment [5], 31.9 µM; in experiment [6], 37.7 µM. The TGI came out at 34.9 µM in experiment [7]; 35 µM in experiment [8]; 29.4 µM in [9]; 27.1 µM in experiment [10]; 30.2 µM in experiment [11]; 30.3 µM in experiment [12]. The TGI in experiment [13] was found to be 12.5 µM.

In the case of `O=C1NC(=O)C2(CCCCCC2)N1`, the TGI in experiment [1], in experiment [2], in experiment [3], in experiment [4], in [5] and in [6] was above 100 µM throughout. The TGI in experiment [7], in [8], in experiment [9], in experiment [10], in experiment [11] and in [12] was above 100 µM in each case. In experiment [13], this molecule returned a TGI above 100 µM.

For `Cc1ccc(N=Nc2ccc(O)c(CN(C)C)c2)cc1`, the TGI was 51.9 µM in experiment [1]; 37.9 µM in experiment [2]; 29.7 µM in experiment [3]; 63 µM in experiment [4]; 70.1 µM in experiment [5]; 53.5 µM in experiment [6]. The TGI worked out at 32.6 µM in experiment [7]; 56.3 µM in experiment [8]; 33.7 µM in [9]; 35 µM in experiment [10]; 91.7 µM in experiment [11]; 53.4 µM in [12]. Further, in experiment [13], the TGI was determined as 39.6 µM.
